From the NIST ThermoML archive (doi:10.1016/j.jct.2012.08.020)
Numbers after ± are expanded uncertainties.

Test: xn = mol fraction of the nth substance listed
Settings: Fluid (supercritical or subcritical phases)

CCCCC(COC(=O)C(=O)OC)OC(=O)C(=O)OC (stereo not given) [1,2-hexanediol bis-(methoxycarbonylformate)] + O=C=O
Settings	mass density [kg/m3]
313 K, x1 = 0.00173	436.05 ± 1.2
313 K, x1 = 0.00309	492.75 ± 1.8
313 K, x1 = 0.00442	517.19 ± 2
313 K, x1 = 0.00567	538.22 ± 2.2
313 K, x1 = 0.00686	556.08 ± 2.4
333 K, x1 = 0.00241	316.53 ± 4.4
333 K, x1 = 0.00416	366.67 ± 1.1
333 K, x1 = 0.00576	397.42 ± 1.1
333 K, x1 = 0.00739	413.01 ± 1.3
333 K, x1 = 0.00874	436.26 ± 1.3
353 K, x1 = 0.00318	239.41 ± 0.77
353 K, x1 = 0.00558	273.18 ± 0.46
353 K, x1 = 0.00729	314.05 ± 0.23
353 K, x1 = 0.00921	331.22 ± 0.73
353 K, x1 = 0.01094	348.73 ± 0.73

CCCCC(COC(=O)C(=O)OCC)OC(=O)C(=O)OCC (stereo not given) [1,2-hexanediol bis-(ethoxycarbonylformate)] + O=C=O
Settings	mass density [kg/m3]
313 K, x1 = 0.00125	556.08 ± 1.7
313 K, x1 = 0.00238	584.52 ± 1.9
313 K, x1 = 0.00345	606.4 ± 2.2
313 K, x1 = 0.00447	624.05 ± 2.4
313 K, x1 = 0.00552	631.74 ± 2.5
333 K, x1 = 0.00179	389.65 ± 3.3
333 K, x1 = 0.00331	420.8 ± 1.4
333 K, x1 = 0.00471	443.89 ± 1.5
333 K, x1 = 0.00608	458.89 ± 1.5
333 K, x1 = 0.00748	466.23 ± 1.7
353 K, x1 = 0.00251	277.12 ± 1.1
353 K, x1 = 0.00456	305.62 ± 0.85
353 K, x1 = 0.00632	331.22 ± 0.62
353 K, x1 = 0.00821	339.94 ± 0.86
353 K, x1 = 0.00988	353.15 ± 1.1

CCCCC(O)CO (stereo not given) [1,2-hexanediol] + O=C=O
Settings	mass density [kg/m3]
313 K, x1 = 0.00073	677.07 ± 1.3
313 K, x1 = 0.00136	730.15 ± 1.8
313 K, x1 = 0.00197	756.91 ± 2.1
313 K, x1 = 0.00256	778.16 ± 2.3
313 K, x1 = 0.0031	802.54 ± 2.6
333 K, x1 = 0.00091	547.92 ± 1.1
333 K, x1 = 0.00169	589.92 ± 1.1
333 K, x1 = 0.00241	619.81 ± 1.2
333 K, x1 = 0.00312	638.84 ± 1.2
333 K, x1 = 0.0038	655.62 ± 1.2
353 K, x1 = 0.00109	457.46 ± 0.91
353 K, x1 = 0.00196	506.95 ± 0.42
353 K, x1 = 0.00281	530.61 ± 0.23
353 K, x1 = 0.00363	549.26 ± 0.2
353 K, x1 = 0.00442	563.72 ± 0.3
